Results: patent US20240400547A1, “2,6-PIPERIDINEDIONE COMPOUND AND APPLICATION THEREOF” (MEDSHINE DISCOVERY INC., priority 2021, published 2024)
Structures can show the parent of a compound that is named as a salt.

Biological target: T1, IKZF3 (Homo sapiens, UniProt Q96SW2+Q9UKT9)
T1 construct: host or cells: MM.1S cells
Test: In Cell Western of IKZF3 protein expression level in MM.1S cells
Format: cell-based
Settings: IKZF3, MM.1S cells, 24 hours
Procedure: Experimental objective: The experiment aims to assess the degradation effect of the test compounds on IKZF1 and 1KZF3 proteins in MM.1S cells by evaluating the impact of the test compounds on the expression levels of IKZF1 and IZKZF3 proteins in MM.1S cells.
• Cell lines: MMN.1 S cell (sourced from ATCC; Cat. No CRL-2974) • Negative control: 0.100 DMSO.
• 1) Log phase MM.1 S cells were plated in a 96-well plate at 1.2×10^5 cells per well and cultured overnight; • 2) The next day, compounds were added with a starting concentration of 300 nM, diluted threefold across three replicate wells for 10 concentration gradients (including DMSO), and the cells were incubated for 24 hours in an incubator; • 3) The cells were centrifuged, and the supernatant was carefully removed. 150 μL of 4% paraformaldehyde fixative was added along the wall of the wells, avoiding contact with the bottom cells, and the cells were incubated at room temperature for 20 minutes; • 4) Lysis buffer was prepared by mixing 0.5 mL of 10% Triton X-100 with 49.5 mL of PBS until homogenous; • 5) 200 μL of lysis buffer was added along the well walls, again avoiding the bottom cells, and incubated on a shaker at room temperature for 5 minutes; • 6) The wells were washed four times; • 7) 150 μL of Licor […] […]

T1 sequence (Q9UKT9 whole entry): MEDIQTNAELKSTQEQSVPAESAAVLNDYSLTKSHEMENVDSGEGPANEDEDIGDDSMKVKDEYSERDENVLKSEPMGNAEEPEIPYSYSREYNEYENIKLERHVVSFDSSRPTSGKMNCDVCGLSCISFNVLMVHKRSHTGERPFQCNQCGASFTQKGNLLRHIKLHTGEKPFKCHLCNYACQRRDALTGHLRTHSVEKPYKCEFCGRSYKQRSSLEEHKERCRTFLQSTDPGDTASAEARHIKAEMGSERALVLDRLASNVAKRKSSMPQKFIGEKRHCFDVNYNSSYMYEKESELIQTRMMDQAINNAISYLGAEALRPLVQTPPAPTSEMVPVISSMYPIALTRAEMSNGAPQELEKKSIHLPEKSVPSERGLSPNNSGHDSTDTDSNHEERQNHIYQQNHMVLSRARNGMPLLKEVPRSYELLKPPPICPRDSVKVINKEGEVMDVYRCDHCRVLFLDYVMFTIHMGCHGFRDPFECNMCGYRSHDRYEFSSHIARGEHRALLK
T1 sequence (Q96SW2 whole entry): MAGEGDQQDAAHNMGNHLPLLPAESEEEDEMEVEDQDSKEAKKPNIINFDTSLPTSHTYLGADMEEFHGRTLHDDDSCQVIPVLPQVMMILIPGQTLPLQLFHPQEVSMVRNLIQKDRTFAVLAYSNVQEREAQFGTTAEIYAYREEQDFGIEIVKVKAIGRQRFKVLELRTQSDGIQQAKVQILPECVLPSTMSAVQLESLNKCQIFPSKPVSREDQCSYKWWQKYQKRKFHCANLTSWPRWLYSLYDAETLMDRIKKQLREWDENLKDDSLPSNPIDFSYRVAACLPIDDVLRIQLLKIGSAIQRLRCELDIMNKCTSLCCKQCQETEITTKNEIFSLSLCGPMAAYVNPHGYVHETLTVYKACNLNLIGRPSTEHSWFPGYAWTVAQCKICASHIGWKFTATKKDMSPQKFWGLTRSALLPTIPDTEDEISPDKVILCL
T1 sequence (Q16531 whole entry partner): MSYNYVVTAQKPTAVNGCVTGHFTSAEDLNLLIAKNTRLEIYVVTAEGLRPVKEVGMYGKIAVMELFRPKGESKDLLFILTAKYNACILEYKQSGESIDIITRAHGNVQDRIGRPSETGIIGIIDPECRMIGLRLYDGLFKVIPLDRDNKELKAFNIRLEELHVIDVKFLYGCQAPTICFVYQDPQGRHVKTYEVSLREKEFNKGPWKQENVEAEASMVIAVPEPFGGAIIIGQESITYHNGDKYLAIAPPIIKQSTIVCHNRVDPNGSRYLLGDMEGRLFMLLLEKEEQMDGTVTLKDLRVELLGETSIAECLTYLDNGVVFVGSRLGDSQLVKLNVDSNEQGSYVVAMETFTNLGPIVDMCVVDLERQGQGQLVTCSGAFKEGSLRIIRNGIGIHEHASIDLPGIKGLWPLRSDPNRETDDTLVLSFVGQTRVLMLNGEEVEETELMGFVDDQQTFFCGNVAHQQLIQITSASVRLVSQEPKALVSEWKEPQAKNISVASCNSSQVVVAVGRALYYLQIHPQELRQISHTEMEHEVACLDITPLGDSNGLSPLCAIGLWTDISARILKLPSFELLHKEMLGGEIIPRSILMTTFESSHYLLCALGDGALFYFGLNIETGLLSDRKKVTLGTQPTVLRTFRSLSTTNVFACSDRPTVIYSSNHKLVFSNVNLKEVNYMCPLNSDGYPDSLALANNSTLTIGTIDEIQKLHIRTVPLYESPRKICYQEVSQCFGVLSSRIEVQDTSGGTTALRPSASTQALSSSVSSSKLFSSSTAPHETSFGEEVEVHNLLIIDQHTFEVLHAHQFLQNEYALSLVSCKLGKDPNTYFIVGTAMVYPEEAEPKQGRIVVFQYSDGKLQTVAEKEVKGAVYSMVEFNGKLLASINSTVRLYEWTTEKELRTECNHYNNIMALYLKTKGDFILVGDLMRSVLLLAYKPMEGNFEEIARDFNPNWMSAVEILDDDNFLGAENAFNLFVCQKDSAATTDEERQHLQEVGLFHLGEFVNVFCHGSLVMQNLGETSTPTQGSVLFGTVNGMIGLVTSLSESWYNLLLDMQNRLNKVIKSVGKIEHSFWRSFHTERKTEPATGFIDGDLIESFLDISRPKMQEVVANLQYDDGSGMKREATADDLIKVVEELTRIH

DC50: 8.34 nM
Dmax (MM1.S, read-out: Maximum degradation rate Dmax): 96.5%
SMILES: O=C1CCC(c2noc3ccc4c(NC(=O)C(F)(F)C5CCN(CC6CCC(n7cc(NC(=O)c8coc(-c9ccnc(NCC%10CC%10)c9)n8)c(C(F)F)n7)CC6)CC5)cccc4c23)C(=O)N1 (centres unmarked) [Hydrochloride of WX018]
